Source: ChEMBL document CHEMBL4002643, “Tubulin-binding dibenz[c,e]oxepines: Part 2. Structural variation and biological evaluation as tumour vasculature disrupting agents” (Bioorg Med Chem, 2017)

What was measured:
OVCAR-3 = assay: Cytotoxicity against human OVCAR3 cells assessed as growth inhibition after 48 hrs by SRB assay; type: functional; conditions: OVCAR-3, 48 h
MCF7 = assay: Cytotoxicity against human MCF7 cells assessed as growth inhibition after 48 hrs by SRB assay; type: functional; conditions: MCF7, 48 h
786-0 = assay: Cytotoxicity against human 786-0 cells assessed as growth inhibition after 48 hrs by SRB assay; type: functional; conditions: 786-0, 48 h
NCI-H522 = assay: Cytotoxicity against human NCI-H522 cells assessed as growth inhibition after 48 hrs by SRB assay; type: functional; conditions: NCI-H522, 48 h
T47D = assay: Cytotoxicity against human T47D cells assessed as growth inhibition after 48 hrs by SRB assay; type: functional
BT-549 = assay: Cytotoxicity against human BT549 cells assessed as growth inhibition after 48 hrs by SRB assay; type: functional; conditions: BT-549, 48 h
NCI-H23 = assay: Cytotoxicity against human NCI-H23 cells assessed as growth inhibition after 48 hrs by SRB assay; type: functional; conditions: NCI-H23, 48 h
RPMI-8226 = assay: Cytotoxicity against human RPMI8226 cells assessed as growth inhibition after 48 hrs by SRB assay; type: functional; conditions: RPMI-8226, 48 h
HCC 2998 = assay: Cytotoxicity against human HCC2998 cells assessed as growth inhibition after 48 hrs by SRB assay; type: functional; conditions: HCC 2998, 48 h
DU-145 = assay: Cytotoxicity against human DU145 cells assessed as growth inhibition after 48 hrs by SRB assay; type: functional; conditions: DU-145, 48 h
OVCAR-8 = assay: Cytotoxicity against human OVCAR8 cells assessed as growth inhibition after 48 hrs by SRB assay; type: functional; conditions: OVCAR-8, 48 h
CCRF-CEM = assay: Cytotoxicity against human CCRF-CEM cells assessed as growth inhibition after 48 hrs by SRB assay; type: functional
K562 = assay: Cytotoxicity against human K562 cells assessed as growth inhibition after 5 days by MTT assay; type: functional, cell-based; conditions: K562, 120 h
SF-268 = assay: Cytotoxicity against human SF268 cells assessed as growth inhibition after 48 hrs by SRB assay; type: functional; conditions: SF-268, 48 h
COLO 205 = assay: Cytotoxicity against human COLO205 cells assessed as growth inhibition after 48 hrs by SRB assay; type: functional; conditions: COLO 205, 48 h
SW-620 = assay: Cytotoxicity against human SW620 cells assessed as growth inhibition after 48 hrs by SRB assay; type: functional; conditions: SW-620, 48 h
M14 = assay: Cytotoxicity against human M14 cells assessed as growth inhibition after 48 hrs by SRB assay; type: functional; conditions: M14, 48 h
[1] = Inhibition of porcine tubulin assembly measured for 30 mins by UV/visible spectrophotometric method; set-up: species or system Sus scrofa
UO-31 = assay: Cytotoxicity against human UO31 cells assessed as growth inhibition after 48 hrs by SRB assay; type: functional; conditions: UO-31, 48 h
NCI-H226 = assay: Cytotoxicity against human NCI-H226 cells assessed as growth inhibition after 48 hrs by SRB assay; type: functional; conditions: NCI-H226, 48 h
NCI-H460 = assay: Cytotoxicity against human NCI-H460 cells assessed as growth inhibition after 48 hrs by SRB assay; type: functional; conditions: NCI-H460, 48 h
A498 = assay: Cytotoxicity against human A498 cells assessed as growth inhibition after 48 hrs by SRB assay; type: functional; conditions: A498, 48 h
UACC-62 = assay: Cytotoxicity against human UACC62 cells assessed as growth inhibition after 48 hrs by SRB assay; type: functional; conditions: UACC-62, 48 h
SK-MEL-2 = assay: Cytotoxicity against human SK-MEL-2 cells assessed as growth inhibition after 48 hrs by SRB assay; type: functional; conditions: SK-MEL-2, 48 h
IGROV-1 = assay: Cytotoxicity against human IGROV1 cells assessed as growth inhibition after 48 hrs by SRB assay; type: functional; conditions: IGROV-1, 48 h
MDA-MB-435 = assay: Cytotoxicity against human MDA-MB-435 cells assessed as growth inhibition after 48 hrs by SRB assay; type: functional; conditions: MDA-MB-435, 48 h
OVCAR-4 = assay: Cytotoxicity against human OVCAR4 cells assessed as growth inhibition after 48 hrs by SRB assay; type: functional; conditions: OVCAR-4, 48 h
SN12C = assay: Cytotoxicity against human SN12C cells assessed as growth inhibition after 48 hrs by SRB assay; type: functional
SK-MEL-5 = assay: Cytotoxicity against human SK-MEL-5 cells assessed as growth inhibition after 48 hrs by SRB assay; type: functional; conditions: SK-MEL-5, 48 h
Hs-578T = assay: Cytotoxicity against human Hs 578T cells assessed as growth inhibition after 48 hrs by SRB assay; type: functional
HCT-15 = assay: Cytotoxicity against human HCT15 cells assessed as growth inhibition after 48 hrs by SRB assay; type: functional; conditions: HCT-15, 48 h
LOX IMVI = assay: Cytotoxicity against human LOXIMVI cells assessed as growth inhibition after 48 hrs by SRB assay; type: functional
KM12 = assay: Cytotoxicity against human KM12 cells assessed as growth inhibition after 48 hrs by SRB assay; type: functional; conditions: KM12, 48 h
SK-MEL-28 = assay: Cytotoxicity against human SK-MEL-28 cells assessed as growth inhibition after 48 hrs by SRB assay; type: functional; conditions: SK-MEL-28, 48 h
U-251 = assay: Cytotoxicity against human U251 cells assessed as growth inhibition after 48 hrs by SRB assay; type: functional; conditions: U-251, 48 h
SF-539 = assay: Cytotoxicity against human SF539 cells assessed as growth inhibition after 48 hrs by SRB assay; type: functional; conditions: SF-539, 48 h
SK-OV-3 = assay: Cytotoxicity against human SKOV3 cells assessed as growth inhibition after 48 hrs by SRB assay; type: functional; conditions: SK-OV-3, 48 h
HOP-62 = assay: Cytotoxicity against human HOP62 cells assessed as growth inhibition after 48 hrs by SRB assay; type: functional; conditions: HOP-62, 48 h
NCI-H322M = assay: Cytotoxicity against human NCI-H322M cells assessed as growth inhibition after 48 hrs by SRB assay; type: functional
SF-295 = assay: Cytotoxicity against human SF295 cells assessed as growth inhibition after 48 hrs by SRB assay; type: functional; conditions: SF-295, 48 h
PC-3 = assay: Cytotoxicity against human PC3 cells assessed as growth inhibition after 48 hrs by SRB assay; type: functional; conditions: PC-3, 48 h
MDA-MB-468 = assay: Cytotoxicity against human MDA-MB-468 cells assessed as growth inhibition after 48 hrs by SRB assay; type: functional; conditions: MDA-MB-468, 48 h
UACC-257 = assay: Cytotoxicity against human UACC257 cells assessed as growth inhibition after 48 hrs by SRB assay; type: functional; conditions: UACC-257, 48 h
HL-60(TB) = assay: Cytotoxicity against human HL-60(TB) cells assessed as growth inhibition after 48 hrs by SRB assay; type: functional; conditions: HL-60, 48 h
SNB-75 = assay: Cytotoxicity against human SNB75 cells assessed as growth inhibition after 48 hrs by SRB assay; type: functional; conditions: SNB-75, 48 h
CAKI-1 = assay: Cytotoxicity against human Caki1 cells assessed as growth inhibition after 48 hrs by SRB assay; type: functional; conditions: CAKI-1, 48 h

## COc1ccc2c(c1)COCc1cc(OC)c(OC)c(OC)c1-2
OVCAR-3
  GI50: 50 nM
MCF7
  GI50: 40 nM
786-0
  GI50: 340 nM
NCI-H522
  GI50: 280 nM
T47D
  GI50: > 100 µM
BT-549
  GI50: 200 nM
NCI-H23
  GI50: 440 nM
RPMI-8226
  GI50: 330 nM
HCC 2998
  GI50: 220 nM
DU-145
  GI50: 180 nM
OVCAR-8
  GI50: 310 nM
CCRF-CEM
  GI50: 80 nM
K562
  IC50: 110 µM
SF-268
  GI50: 460 nM
COLO 205
  GI50: 110 nM
SW-620
  GI50: 50 nM
M14
  GI50: 50 nM
[1]
  IC50: 7.4 µM
UO-31
  GI50: 15.1 µM
NCI-H226
  GI50: 1580 nM
NCI-H460
  GI50: 170 nM
A498
  GI50: 0.17 µM
UACC-62
  GI50: 80 nM
SK-MEL-2
  GI50: 100 nM
IGROV-1
  GI50: 850 nM
MDA-MB-435
  GI50: 30 nM
OVCAR-4
  GI50: 740 nM
SN12C
  GI50: 830 nM
SK-MEL-5
  GI50: 30 nM
Hs-578T
  GI50: 240 nM
HCT-15
  GI50: 80 nM
LOX IMVI
  GI50: 210 nM
KM12
  GI50: 50 nM
SK-MEL-28
  GI50: 80 nM
U-251
  GI50: 100 nM
SF-539
  GI50: 160 nM
SK-OV-3
  GI50: 130 nM
HOP-62
  GI50: 1120 nM
NCI-H322M
  GI50: 2040 nM
SF-295
  GI50: 60 nM
PC-3
  GI50: 480 nM
MDA-MB-468
  GI50: 30 nM
UACC-257
  GI50: > 100 µM
HL-60(TB)
  GI50: 40 nM
SNB-75
  GI50: 90 nM
CAKI-1
  GI50: 30.2 µM

## COc1ccc2c(c1OP(=O)([O-])[O-])COCc1cc(OC)c(OC)c(OC)c1-2.[Na+].[Na+]
OVCAR-3
  GI50: 280 nM
MCF7
  GI50: 400 nM
786-0
  GI50: 720 nM
NCI-H522
  GI50: 300 nM
T47D
  GI50: 8.51 µM
BT-549
  GI50: 2240 nM
NCI-H23
  GI50: 710 nM
RPMI-8226
  GI50: 460 nM
HCC 2998
  GI50: 420 nM
DU-145
  GI50: 390 nM
OVCAR-8
  GI50: 420 nM
CCRF-CEM
  GI50: 290 nM
K562
  IC50: 0.23 µM
SF-268
  GI50: 790 nM
COLO 205
  GI50: 620 nM
SW-620
  GI50: 400 nM
M14
  GI50: 270 nM
[1]
  IC50: 1.4 µM
UO-31
  GI50: 19.5 µM
NCI-H226
  GI50: 2820 nM
NCI-H460
  GI50: 360 nM
A498
  GI50: 18.6 µM
UACC-62
  GI50: 5500 nM
SK-MEL-2
  GI50: 5370 nM
IGROV-1
  GI50: 4070 nM
MDA-MB-435
  GI50: 40 nM
OVCAR-4
  GI50: 1290 nM
SN12C
  GI50: 720 nM
SK-MEL-5
  GI50: 260 nM
Hs-578T
  GI50: 240 nM
HCT-15
  GI50: 440 nM
LOX IMVI
  GI50: 660 nM
KM12
  GI50: 300 nM
SK-MEL-28
  GI50: 890 nM
U-251
  GI50: 480 nM
SF-539
  GI50: 330 nM
SK-OV-3
  GI50: 400 nM
HOP-62
  GI50: 790 nM
NCI-H322M
  GI50: 1320 nM
SF-295
  GI50: 320 nM
PC-3
  GI50: 560 nM
MDA-MB-468
  GI50: 1150 nM
UACC-257
  GI50: 4.68 µM
HL-60(TB)
  GI50: 320 nM
SNB-75
  GI50: 540 nM
CAKI-1
  GI50: 0.79 µM
